In US7045495B2 (Sloan-Kettering Institute for Cancer Research, priority 1996, dated 2006):
Read-outs that look alike come from different tables or passages of the source.

Assays:
[1] = system: SK-GT-5 cells; assay: apoptosis by quantitative fluorescent microscopy (QFM), Hoechst-33258 staining; type: cell-based, human; details: FIG. 4: safingol 50 μM and/or PMA 1 ng/ml for 1 hour, then MMC 5 μg/ml or no drug 24 hours; MMC alone 24 hours
Method: (§1) Apoptosis was measured by two different methods: (i) Quantitative fluorescent microscopy (QFM) of nuclear changes induced by apoptosis, as determined by bisbenzimide trihydrochloride (Hoescht-33258) staining of nuclear chromatin (15), and (ii) a terminal deoxynucleotidyl transferase (TdT) assay that labels the 3′-OH ends of DNA fragments produced in apoptotic cells (16). […] MMC was diluted in water. A stock safingol solution was constituted in DMSO and was subsequently diluted at least 1:100 in media for all experiments. […] For QFM determinations, the cells were fixed in 3% paraformaldehyde and incubated at room temperature for 10 minutes. The fixative was removed and the cells were washed with 1×PBS, resuspended in 20 μl 1×PBS containing only 8 μg/ml of bisbenzimide trihydrochloride (Hoechst #33258), and incubated at room temperature for 15 minutes. Aliquots of the cells (10 μl) were placed on glass slides coated with 3-amino-propyl-triethoxysilane, and duplicate samples of 500 cells each were counted and scored for the incidence of apoptotic chromatin condensation using an Olympus BH-2 fluorescence microscope equipped with a BH2-DM2U2UV Dich. Mirror Cube filter (Olympus, Lake Success, N.Y.). For the TdT assays, the ApopTag Kit (Oncor, Gaithersburg, Md.) was used. This method employs a fluoresceinated antidigoxigenin antibody directed against nucleotides of digoxigenin-11-dUTP (d-dUTP) which are catalytically added to the 3-ends fragmented DNA by TdT. Briefly, 1–2×10^6 cells were washed and fixed with 1% paraformaldehyde. The fixed cells were incubated in a reaction mixture containing TdT and d-dUTP for 30 minutes at 37° C. Stop/wash buffer was added, and the cells were resuspended in 100 μl of fluorescinated anti-digoxigenin antibody for 30 minutes at room temperature. The cells were then washed with 0.1% Triton X-100 and counterstained with propidium iodide (PI) solution. Green (d-dUTP labeled DNA strand breaks) and red (PI staining for total DNA content) fluorescence of individual cells were measured on a FACScan flow cytometer (Becton Dickinson, San Jose, Calif.). The resulting bivariate plots enabled the detection of apoptotic events within the cell cycle. The R1 cursor was set using the control specimen to define normal levels of green fluorescence (i.e., basal levels of apoptosis). Cells with fluorescence above the R, cursor were considered apoptotic. The data from 10,000 cells were collected and analyzed using CellFit and LYSYS software (Becton Dickinson).
For the QFM duplicate samples of 500 cells each were counted and scored for the incidence of apoptotic chromatin condensation using an Olympus BH-2 fluorescence microscope.

[2] = system: MKN-74 cells; assay: apoptosis by QFM, Hoechst-33258 staining; type: cell-based, human; details: for induction of apoptosis (condensed chromatin, 400 cells): MKN-74, UCN-01 7.5 to 10 μM; for Percent Apoptosis: 24 h continuous (single drug) or concomitant, flavopiridol 300 nM, paclitaxel 50 μM, carboplatin
Method: as §1
Apoptosis was again measured by QFM staining.
(§2) Induction of apoptosis was estimated by counting the frequency of condensed nuclear chromatin with Hoechst-33258 stain in duplicate samples of 400 cells.
For these studies apoptosis was measured by quantitative fluorescent microscopy (QFM) determination with bisbenzimide trihydrochloride stain (Hoescht-33258) for condensed nuclear chromatin characteristic of apoptotic cells.
For QFM determinations 500 cells were counted and scored for the incidence of apoptotic chromatin changes under an Olympus BH-2 fluorescence microscope in duplicate samples, ±SD, using a BH2-DM2U2UV Dich. Mirror Cube filter.
To study this further applicants elected to examine five bis-indolylmaleimides with various potencies against PKC. […] The induction of apoptosis was estimated by counting the frequency of condensed nuclear chromatin with Hoechst-33258 stain in duplicate samples of 400 cells.

[3] = system: PKC; details: cited from earlier work
[4] = system: SK-GT-2 cells; assay: apoptosis by QFM, Hoechst-33258 staining; type: cell-based, human; details: 24 hours; for percentage of cells undergoing apoptosis (QFM): MMC 5.0 μg/ml
Method: (i) Safingol enhances MMC-induced apoptosis: SK-GT-5 cells, which have a mutated p53 gene (9), were treated with safingol in the presence or absence of MMC for 24 hours. For determination of apoptosis SK-GT-5 cells were treated according to one of several conditions: (i) no drug (control) for 24 hours, (ii) Safingol alone (50 μM) for 24 hours. (This concentration represents the highest non-toxic dose of safingol for the SK-GT-5 cells, as determined by cell proliferation studies, and slightly exceeds the safingol concentration (30 μM) which inhibits PKC enzyme activity by 50% in vitro.), (iii) Mitomycin-C alone (2.5 μg/ml) for 24 hours, (iv) Mitomycin-C alone (5 μg/ml) for 24 hours, (v) the combination of safingol (50 μM) and Mitomycin-C (2.5 μg/ml) for 24 hours, (vi) the combination of safingol (50 μM) and Mitomycin-C (5 μg/ml) for 24 hours. Apoptosis was measured by quantitative fluorescent microscopy (QFM) of nuclear changes induced by apoptosis, as determined by bisbenzimide trihydrochloride (Hoescht-33258) staining of condensed nuclear chromatin (3,5). For the QFM duplicate samples of 500 cells each were counted and scored for the incidence of apoptotic chromatin condensation using an Olympus BH-2 fluorescence microscope.
(ii) UCN-01 enhances MMC-induced apoptosis: SK-GT-2 cells, which have a mutation in p53, were treated with increasing concentrations of UCN-01 in the presence or absence of a fixed dose of MMC for 24 hours.
Both UCN-01 and Flavo inhibit PKC. These drugs are cytotoxic to tumor cells and have been reported to induce apoptosis. […] In order to test this hypothesis we elected to treat gastric cancer cells, MKN-74 and SK-GT-2, as well as breast cancer cells, MDA-MB-468, with UCN-01 (7.5 to 10 μM) or Flavo (300 nM) in the presence or absence of MMC (5 μg/ml) or Taxol (50 μM) for 24 hours. Induction of apoptosis was estimated by counting the frequency of condensed nuclear chromatin with Hoechst-33258 stain in duplicate samples of 400 cells.

[5] = system: MDA-MB-468 breast cancer cells; assay: apoptosis by QFM, Hoechst-33258 staining; type: cell-based, human; details: 24 hours
Method: PRELIMINARY STUDIES. […] Apoptosis was measured by quantitative fluorescent microscopy (QFM) of nuclear changes induced by apoptosis, as determined by bisbenzimide trihydrochloride (Hoescht-33258) staining of condensed nuclear chromatin (24). For the QFM duplicate samples of 500 cells each were counted and scored for the incidence of apoptotic chromatin condensation using an Olympus BH-2 fluorescence microscope.
Applicants also tested the PKC inhibitor UCN-01 (27) which is currently in phase I clinical trial at the NCI. In contrast to safingol, which inhibits PKC by binding to its regulatory domain, UCN-01 inhibits PKC at its catalytic domain. Therefore, assessment of the effect of UCN-01 on inducing apoptosis in combination with MMC on MDA-MB-468 was also performed. The QFM method to quantitate apoptosis was again used. The conditions tested were identical to those described above for safingol except UCN-01 (1 μM) was substituted for safingol in all the conditions.
as §2

[6] = system: MKN-74; assay: cell viability, trypan blue dye exclusion; type: cell-based, human; details: 24 hours, single drug or concomitant; bryostatin 1 μM, Mitomycin-C 1 μg/ml, Taxol 50 μM, Cisplatin 50 μM
Description: Recently our laboratory has studied the effects of combining bryostatin with chemotherapy both in vitro and in vivo against solid tumors. For our in vitro studies, we have been using the human gastric cancer cell line MKN-74. Cytotoxicity has been examined both by cell viability assays using trypan blue dye exclusion assays and by the induction of apoptosis using quantitative fluorescent microscopy.

[7] = system: mammary carcinomas; assay: tumor size in mice bearing mammary carcinomas; type: in vivo; details: for increase in tumor size by day #6: bryostatin 60 μg/kg followed in 12 hours by Mitomycin-C 3 μg/kg or Taxol 50 μg/kg, preliminary
[8] = system: esophageal carcinoma; details: cited from earlier work
[9] = system: metastatic breast cancer; details: cited from earlier work

Q: For `CCCCCCCCCCCCCC(=O)O[C@@H]1[C@@H](C)[C@@]2(O)[C@@H](C=C(CO)C[C@]3(O)C(=O)C(C)=C[C@@H]23)[C@@H]2C(C)(C)[C@]12OC(C)=O` [PMA, 3-phorbol 12-myristate 13-acetate], which “percentage of cells undergoing apoptosis (QFM)” value (“percentage” for short) [1] is on record?
A: essentially no effect on inducing apoptosis

Q: With `CN(C)C[C@H]1CCn2c(c(C3=C(c4cn(C)c5ccccc45)C(=O)NC3=O)c3ccccc32)C1` [RO 32-0432] as the molecule, how does the “percentage” value ([2]; 24 hours, RO 32-0432 1 μM, MMC) read?
A: essentially no effect on inducing apoptosis

Q: What about the “percent induction of apoptosis, 6hrs” value ([2]; Ro 2 μM, MMC 1 μg/ml) of the same molecule?
A: 0.3%

Q: And the “percent induction of apoptosis, 12hrs” value ([2]; Ro 2 μM, MMC 1 μg/ml)?
A: 1.5%

Q: And the “percent induction of apoptosis, 24hrs” value ([2]; Ro 2 μM, MMC 1 μg/ml)?
A: 1.2%

Q: And the “percent induction of apoptosis, 48hrs” value ([2]; Ro 2 μM, MMC 1 μg/ml)?
A: 5.0%

Q: What about the “percent induction of apoptosis, 72hrs” value ([2]; Ro 2 μM, MMC 1 μg/ml) of the same molecule?
A: 13%

Q: With `CN[C@@H]1C[C@H]2O[C@@](C)([C@@H]1OC)n1c3ccccc3c3c4c(c5c6ccccc6n2c5c31)C(=O)N[C@H]4O` [UCN-01, 7-OH-staurosporine] as the molecule, how does the “induction of apoptosis (condensed chromatin, 400 cells)” value ([2]; 24 hours, Taxol 50 μM) read?
A: 10% ± 2

Q: And the “percentage” value ([4]; UCN-01 0.1 μM)?
A: 1%±0%

Q: And the “percentage” value ([4]; UCN-01 1 μM)?
A: 1%±0

Q: And the “percentage” value ([4]; UCN-01 10 μM)?
A: 21%±1%

Q: What about the “induction of apoptosis (condensed chromatin, 400 cells)” value ([4]; UCN-01 7.5 to 10 μM, MMC 5 μg/ml) of the same molecule?
A: 18% ± 4

Q: What about the “induction of apoptosis (QFM)” value ([5]; FIG. 10, UCN-01 1 μM, MMC 5.0 μg/ml) of the same molecule?
A: 20%±4

Q: And the “induction of apoptosis (condensed chromatin, 400 cells)” value ([5]; MDA-MB-468, UCN-01 7.5 to 10 μM, MMC 5 μg/ml)?
A: 20% ± 1

Q: And the “concentration range that inhibits PKC activity” value [3]?
A: nanomolar concentrations

Q: With `CCC/C=C/C=C/C(=O)O[C@H]1/C(=C/C(=O)OC)C[C@H]2C[C@H]([C@@H](C)O)OC(=O)C[C@H](O)C[C@@H]3C[C@H](OC(C)=O)C(C)(C)[C@](O)(C[C@@H]4C/C(=C/C(=O)OC)C[C@H](/C=C/C(C)(C)[C@]1(O)O2)O4)O3` [bryostatin] as the molecule, how does the “% of Cells Alive” value [6] read?
A: 85%

Q: And the “increase in tumor size by day #6” value [7]?
A: 80%

Q: What about the “tumor energy and pH (NMR)” value ([7]; first noted 12 to 24 hours after bryostatin) of the same molecule?
A: dose-dependent decrease in tumor energy and pH

Q: Which “Percent Apoptosis” value ([2]; MMC 1 μg/ml) does the source give for `N.N.O=C([O-])C1(C(=O)[O-])CCC1.[Pt+2]` [carboplatin] here?
A: 1%±1%

Q: And the “Percent Apoptosis” value ([2]; MMC 1 μg/ml, listed as Carboplatin)?
A: 1% ± 1%

Q: With `CC(=O)O[C@H]1C(=O)[C@@]2(C)[C@H]([C@H](OC(=O)c3ccccc3)[C@]3(O)C[C@H](OC(=O)[C@H](O)[C@@H](NC(=O)c4ccccc4)c4ccccc4)C(C)=C1C3(C)C)[C@]1(OC(C)=O)CO[C@@H]1C[C@@H]2O` [paclitaxel, Tax-11-en-9-one, 5 beta, 20-epoxy-1, 2 alpha, 4, 7 beta, 10 beta, 13 alpha-hexahydroxy-1,4, 10-diacetate, 2 benzoate 13-(alpha-phenylhippurate)] as the molecule, how does the “Percent Apoptosis” value ([2]; MMC 1 μg/ml) read?
A: 5.5%±1

Q: And the “Percent Apoptosis” value ([2]; MMC 1 μg/ml, listed as Paclitaxel)?
A: 6% ± 1%

Q: What about the “% APOPTOSIS” value ([2]; 24 hours, FLAVO 300 nM, Taxol 50 μM, MMC 1 μg/ml, single drugs or in combination) of the same molecule?
A: 9%

Q: What about the “percent induction of apoptosis, Concomitant” value ([2]; 24 hours, FLAVO 300 nM, Taxol 50 μM, MMC 1 μg/ml, single drugs or together) of the same molecule?
A: 9% ± 1%

Q: What about the “induction of apoptosis (condensed chromatin, 400 cells)” value ([2]; 24 hours, Taxol 50 μM) of the same molecule?
A: 2% ± 1

Q: What about the “% of Cells Alive” value [6] of the same molecule?
A: 93%

Q: And the “increase in tumor size by day #6” value [7]?
A: 22%

Q: And the major responses ([8]; 250 mg/m^2 by 24 hour infusion every 21 days with G-CSF, 51 patients)?
A: 32%

Q: What about the complete response ([8]; 250 mg/m^2 by 24 hour infusion, 51 patients) of the same molecule?
A: 2%

Q: And the median survival ([8]; in vivo)?
A: 13 months

Q: What about the response rate ([9]; 96 hour infusion, taxane resistant population) of the same molecule?
A: 286

Q: What about the response rates ([9]; first chemotherapy, 24 hour infusion with or without G-CSF) of the same molecule?
A: 56–62%

Q: What about the response rate ([9]; first line, 250 mg/m^2 over 3 hour infusion) of the same molecule?
A: 32%
